ChEMBL document CHEMBL1201862, “PubChem BioAssay data set” (2004)
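Results reflect a 48-hour exposure of cells in 96-well plates to compound at five concentrations. The concentration for 50% growth inhibition is given as GI50.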 Calls of active or inactive are those of the source. Rule as the data show it: active = GI50 up to about 1.1 µM and inactive = higher.

Columns and labels:
Assay in all cases: NCI anticancer screen, dose series, 48 h
EKVX = tested on: EKVX
UACC-257 = tested on: UACC-257
HOP-18 = tested on: HOP-18
SK-MEL-28 = tested on: SK-MEL-28
M19-MEL = tested on: M19-MEL
UACC-62 = tested on: UACC-62
NCI-H460 = tested on: NCI-H460
K562 = tested on: K562
TK-10 = tested on: TK-10
CCRF-CEM = tested on: CCRF-CEM
SK-OV-3 = tested on: SK-OV-3
A549 = tested on: A549
DLD-1 = tested on: DLD-1
COLO 205 = tested on: COLO 205
M14 = tested on: M14
RXF 393 = tested on: RXF 393
KM-20L2 = tested on: KM-20L2
HOP-62 = tested on: HOP-62
OVCAR-5 = tested on: OVCAR-5
DMS-114 = tested on: DMS-114
UO-31 = tested on: UO-31
U-251 = tested on: U-251
SR = tested on: SR
LXFL 529 = tested on: LXFL 529
NCI-H522 = tested on: NCI-H522
DMS-273 = tested on: DMS-273
786-0 = tested on: 786-0
MOLT-4 = tested on: MOLT-4
HCT-116 = tested on: HCT-116
ACHN = tested on: ACHN
RXF 631 = tested on: RXF 631
HCT-15 = tested on: HCT-15
SW-620 = tested on: SW-620
SF-539 = tested on: SF-539
A498 = tested on: A498
OVCAR-4 = tested on: OVCAR-4
SN12C = tested on: SN12C
HT-29 = tested on: HT-29
NCI-H226 = tested on: NCI-H226
LOX IMVI = tested on: LOX IMVI
SNB-78 = tested on: SNB-78
CAKI-1 = tested on: CAKI-1
SNB-75 = tested on: SNB-75
Malme-3M = tested on: Malme-3M
HOP-92 = tested on: HOP-92
OVCAR-3 = tested on: OVCAR-3
SNB-19 = tested on: SNB-19
SK-MEL-2 = tested on: SK-MEL-2
HL-60 = tested on: HL-60
HCC 2998 = tested on: HCC 2998
RPMI-8226 = tested on: RPMI-8226
OVCAR-8 = tested on: OVCAR-8
KM12 = tested on: KM12
NCI-H23 = tested on: NCI-H23
SF-295 = tested on: SF-295
SF-268 = tested on: SF-268
IGROV-1 = tested on: IGROV-1
XF498 = tested on: XF498
SK-MEL-5 = tested on: SK-MEL-5

C[n+]1c2ccccc2cc2c(CNC(CCCNC(=N)N)C(=O)O)cccc21 (centres undefined)
GI50 (EKVX): 4660 nM (inactive)
GI50 (UACC-257): 638 nM (active)
GI50 (HOP-18): 2050 nM (inactive)
GI50 (SK-MEL-28): 1340 nM (inactive)
GI50 (M19-MEL): 413 nM (active)
GI50 (UACC-62): 643 nM (active)
GI50 (NCI-H460): 1900 nM (inactive)
GI50 (K562): 220 nM (active)
GI50 (TK-10): 670 nM (active)
GI50 (CCRF-CEM): 179 nM (active)
GI50 (SK-OV-3): 1990 nM (inactive)
GI50 (A549): 3050 nM (inactive)
GI50 (DLD-1): 351 nM (active)
GI50 (COLO 205): 248 nM (active)
GI50 (M14): 3310 nM (inactive)
GI50 (RXF 393): 45.8 nM (active)
GI50 (KM-20L2): 641 nM (active)
GI50 (HOP-62): 2700 nM (inactive)
GI50 (OVCAR-5): 4500 nM (inactive)
GI50 (DMS-114): 232 nM (active)
GI50 (UO-31): 959 nM (active)
GI50 (U-251): 1610 nM (inactive)
GI50 (SR): 184 nM (active)
GI50 (LXFL 529): 733 nM (active)
GI50 (NCI-H522): 1400 nM (inactive)
GI50 (DMS-273): 1590 nM (inactive)
GI50 (786-0): 750 nM (active)
GI50 (MOLT-4): 208 nM (active)
GI50 (HCT-116): 301 nM (active)
GI50 (ACHN): 594 nM (active)
GI50 (RXF 631): 3370 nM (inactive)
GI50 (HCT-15): 394 nM
GI50 (SW-620): 378 nM (active)
GI50 (SF-539): 1230 nM (inactive)
GI50 (A498): 3510 nM (inactive)
GI50 (OVCAR-4): 11400 nM (inactive)
GI50 (SN12C): 650 nM (active)
GI50 (HT-29): 303 nM (active)
GI50 (NCI-H226): 3050 nM (inactive)
GI50 (LOX IMVI): 493 nM (active)
GI50 (SNB-78): 2310 nM (inactive)
GI50 (CAKI-1): 518 nM (active)
GI50 (SNB-75): 5620 nM (inactive)
GI50 (Malme-3M): 2050 nM (inactive)
GI50 (HOP-92): 1300 nM (inactive)
GI50 (OVCAR-3): 2000 nM (inactive)
GI50 (SNB-19): 2370 nM (inactive)
GI50 (SK-MEL-2): 4030 nM (inactive)
GI50 (HL-60): 149 nM (active)
GI50 (HCC 2998): 2240 nM (inactive)
GI50 (RPMI-8226): 68.2 nM (active)
GI50 (OVCAR-8): 1800 nM (inactive)
GI50 (KM12): 448 nM (active)
GI50 (NCI-H23): 3140 nM (inactive)
GI50 (SF-295): 3170 nM (inactive)
GI50 (SF-268): 244 nM (active)
GI50 (IGROV-1): 7400 nM (inactive)
GI50 (XF498): 2070 nM (inactive)
GI50 (SK-MEL-5): 2210 nM (inactive)
